Test results: the NIST ThermoML archive (doi:10.1016/j.jct.2013.03.023)
± gives the expanded uncertainty stated by the source.

Conditions: 101.33 kPa, Liquid; for viscosity: Capillary tube (Ostwald / Ubbelohde) method; for mass density: Vibrating tube method

viscosity (298.15 K) | mass density (298.15 K) | viscosity (303.15 K) | mass density (303.15 K) | viscosity (308.15 K) | mass density (308.15 K) | viscosity (313.15 K) | mass density (313.15 K) | Structure (SMILES)
8.703 ± 0.2 mPa·s | 1009 ± 1 kg/m3 | 6.981 ± 0.16 mPa·s | 1004.86 ± 1 kg/m3 | 5.714 ± 0.13 mPa·s | 1000.73 ± 1 kg/m3 | 4.748 ± 0.11 mPa·s | 996.58 ± 1 kg/m3 | CC(O)c1ccccc1 (configuration not stated) [1-phenylethanol]
0.6378 ± 0.014 mPa·s | 862.51 ± 1 kg/m3 | 0.609 ± 0.013 mPa·s | 858.1 ± 1 kg/m3 | 0.5682 ± 0.012 mPa·s | 853.68 ± 1 kg/m3 | 0.541 ± 0.012 mPa·s | 849.26 ± 1 kg/m3 | CCc1ccccc1 [ethylbenzene]
0.891 ± 0.019 mPa·s |  |  |  |  |  |  |  | O [water]
